Laboratory results as given in ChEMBL document CHEMBL3885881, “DrugMatrix”.

Organism: Rattus norvegicus
Test: DrugMatrix - Regimen: Daily Repeat
Format: toxicity, organism-based, Sprague-Dawley
Set-up: regimen Daily Repeat, gender Male, age 6-8 weeks
Details: in vivo, sc, route subcutaneous, […]; for ABSOLUTE BASOPHIL / ABSOLUTE EOSINOPHIL / ABSOLUTE LYMPHOCYTE / ABSOLUTE MONOCYTE / ABSOLUTE SEGMENTED NEUTROPHIL / BASOPHIL / EOSINOPHIL / ERYTHROCYTE COUNT / HEMATOCRIT / HEMOGLOBIN / LEUKOCYTE COUNT / LYMPHOCYTE / MEAN CORPUSCULAR HEMOGLOBIN / MEAN CORPUSCULAR HEMOGLOBIN CONCENTRATION / MEAN CORPUSCULAR VOLUME / MONOCYTE / NEUTROPHIL / NUCLEATED RED BLOOD CELLS / PLATELET COUNT: tissue Blood; for ALANINE AMINOTRANSFERASE / ALBUMIN / ALKALINE PHOSPHATASE / ASPARTATE AMINOTRANSFERASE / BLOOD UREA NITROGEN / CARBON DIOXIDE / CHLORIDE / CHOLESTEROL / CREATINE PHOSPHOKINASE / CREATININE / GLUCOSE / LACTATE DEHYDROGENASE / LIPASE / PHOSPHORUS / POTASSIUM / SODIUM / TOTAL BILIRUBIN / TOTAL PROTEIN / URIC ACID: tissue Plasma
[1] = 50 mg/kg, 120 h, dose level Low, time 5 day
[2] = 201 mg/kg, 72 h, dose level High, time 3 day
[3] = 201 mg/kg, 120 h, dose level High, time 5 day

CCCCOC(=O)c1ccc(N)cc1 [BUTAMBEN]
ABSOLUTE BASOPHIL [1]: 0 CELLS/uL | ABSOLUTE EOSINOPHIL [1]: 200.67 CELLS/uL | ABSOLUTE LYMPHOCYTE [1]: 13363.67 CELLS/uL | ABSOLUTE MONOCYTE [1]: 123.33 CELLS/uL | ABSOLUTE SEGMENTED NEUTROPHIL [1]: 2512.33 CELLS/uL | BASOPHIL [1]: 0% | EOSINOPHIL [1]: 1.33% | ERYTHROCYTE COUNT [1]: 5.82 x10E6/uL | HEMATOCRIT [1]: 36.47% | HEMOGLOBIN [1]: 13.23 G/DL | LEUKOCYTE COUNT [1]: 16.2 x10E3/uL | LYMPHOCYTE [1]: 82.33% | MEAN CORPUSCULAR HEMOGLOBIN [1]: 22.8 pg | MEAN CORPUSCULAR HEMOGLOBIN CONCENTRATION [1]: 36.3 G/DL | MEAN CORPUSCULAR VOLUME [1]: 62.77 fL | MONOCYTE [1]: 0.67% | NEUTROPHIL [1]: 15.67% | NUCLEATED RED BLOOD CELLS [1]: 0 /100WBC | PLATELET COUNT [1]: 1424.33 x10E3/uL | ALANINE AMINOTRANSFERASE [1]: 47.67 u/L | ALBUMIN [1]: 4.3 G/DL | ALKALINE PHOSPHATASE [1]: 349 u/L | ASPARTATE AMINOTRANSFERASE [1]: 78.67 u/L | BLOOD UREA NITROGEN [1]: 19.67 mg/dL | CARBON DIOXIDE [1]: 23.67 mmol/L | CHLORIDE [1]: 105.67 MEQ/L | CHOLESTEROL [1]: 76.67 mg/dL | CREATINE PHOSPHOKINASE [1]: 340 u/L | CREATININE [1]: 0.21 mg/dL | GLUCOSE [1]: 179.67 mg/dL | LACTATE DEHYDROGENASE [1]: 100.67 u/L | LIPASE [1]: 8.33 u/L | PHOSPHORUS [1]: 12.87 mg/dL | POTASSIUM [1]: 6.56 MEQ/L | SODIUM [1]: 145.27 MEQ/L | TOTAL BILIRUBIN [1]: 0.23 mg/dL | TOTAL PROTEIN [1]: 6.03 G/DL | URIC ACID [1]: 1.9 mg/dL | ABSOLUTE BASOPHIL [2]: 0 CELLS/uL | ABSOLUTE EOSINOPHIL [2]: 70 CELLS/uL | ABSOLUTE LYMPHOCYTE [2]: 16456 CELLS/uL | ABSOLUTE MONOCYTE [2]: 124.67 CELLS/uL | ABSOLUTE SEGMENTED NEUTROPHIL [2]: 2816 CELLS/uL | BASOPHIL [2]: 0% | EOSINOPHIL [2]: 0.33% | ERYTHROCYTE COUNT [2]: 5.58 x10E6/uL | HEMATOCRIT [2]: 36% | HEMOGLOBIN [2]: 13.23 G/DL | LEUKOCYTE COUNT [2]: 19.47 x10E3/uL | LYMPHOCYTE [2]: 84.67% | MEAN CORPUSCULAR HEMOGLOBIN [2]: 23.77 pg | MEAN CORPUSCULAR HEMOGLOBIN CONCENTRATION [2]: 36.8 G/DL | MEAN CORPUSCULAR VOLUME [2]: 64.57 fL | MONOCYTE [2]: 0.67% | NEUTROPHIL [2]: 14.33% | NUCLEATED RED BLOOD CELLS [2]: 0.67 /100WBC | PLATELET COUNT [2]: 1165.33 x10E3/uL | ALANINE AMINOTRANSFERASE [2]: 57 u/L | ALBUMIN [2]: 4.07 G/DL | ALKALINE PHOSPHATASE [2]: 412 u/L | ASPARTATE AMINOTRANSFERASE [2]: 89.67 u/L | BLOOD UREA NITROGEN [2]: 16.33 mg/dL | CARBON DIOXIDE [2]: 27.67 mmol/L | CHLORIDE [2]: 103 MEQ/L | CHOLESTEROL [2]: 70.67 mg/dL | CREATINE PHOSPHOKINASE [2]: 345 u/L | CREATININE [2]: 0.18 mg/dL | GLUCOSE [2]: 160.33 mg/dL | LACTATE DEHYDROGENASE [2]: 218 u/L | LIPASE [2]: 8.33 u/L | PHOSPHORUS [2]: 12.83 mg/dL | POTASSIUM [2]: 6.76 MEQ/L | SODIUM [2]: 143.8 MEQ/L | TOTAL BILIRUBIN [2]: 0.23 mg/dL | TOTAL PROTEIN [2]: 5.8 G/DL | URIC ACID [2]: 1.53 mg/dL | ABSOLUTE BASOPHIL [3]: 0 CELLS/uL | ABSOLUTE EOSINOPHIL [3]: 338.33 CELLS/uL | ABSOLUTE LYMPHOCYTE [3]: 17074 CELLS/uL | ABSOLUTE MONOCYTE [3]: 209.67 CELLS/uL | ABSOLUTE SEGMENTED NEUTROPHIL [3]: 3344.67 CELLS/uL | BASOPHIL [3]: 0% | EOSINOPHIL [3]: 1.67% | ERYTHROCYTE COUNT [3]: 5.22 x10E6/uL | HEMATOCRIT [3]: 33.53% | HEMOGLOBIN [3]: 12.47 G/DL | LEUKOCYTE COUNT [3]: 20.97 x10E3/uL | LYMPHOCYTE [3]: 81.33% | MEAN CORPUSCULAR HEMOGLOBIN [3]: 23.9 pg | MEAN CORPUSCULAR HEMOGLOBIN CONCENTRATION [3]: 37.17 G/DL | MEAN CORPUSCULAR VOLUME [3]: 64.37 fL | MONOCYTE [3]: 1% | NEUTROPHIL [3]: 16% | NUCLEATED RED BLOOD CELLS [3]: 0 /100WBC | PLATELET COUNT [3]: 1321.67 x10E3/uL | ALANINE AMINOTRANSFERASE [3]: 47 u/L | ALBUMIN [3]: 4.17 G/DL | ALKALINE PHOSPHATASE [3]: 353 u/L | ASPARTATE AMINOTRANSFERASE [3]: 79.67 u/L | BLOOD UREA NITROGEN [3]: 18 mg/dL | CARBON DIOXIDE [3]: 26.67 mmol/L | CHLORIDE [3]: 104.33 MEQ/L | CHOLESTEROL [3]: 51 mg/dL | CREATINE PHOSPHOKINASE [3]: 415 u/L | CREATININE [3]: 0.21 mg/dL | GLUCOSE [3]: 163 mg/dL | LACTATE DEHYDROGENASE [3]: 103 u/L | LIPASE [3]: 8 u/L | PHOSPHORUS [3]: 12.37 mg/dL | POTASSIUM [3]: 6.72 MEQ/L | SODIUM [3]: 144.47 MEQ/L | TOTAL BILIRUBIN [3]: 0.37 mg/dL | TOTAL PROTEIN [3]: 6.07 G/DL | URIC ACID [3]: 1.93 mg/dL
